{"source": "the NIST ThermoML archive (doi:10.1016/j.fluid.2018.12.005)", "key": {"[1]": {"conditions": "Liquid; for mass density: 298.15 K, 101.33 kPa, Vibrating tube method; for vapor or sublimation pressure: Closed cell (Static) method"}, "[2]": {"test": "refractive index (Na D-line) (dimensionless)", "conditions": "298.15 K; 101.33 kPa; Liquid; Standard Abbe refractometry"}}, "note": "Several values for one entry are separate records, joined by “and”; a condition that tells them apart may be missing. Equal values may be shown once. ± gives the expanded uncertainty stated by the source."}
{"smiles": "CCCCCC", "note": "[hexane]", "values": [{"measurement": "mass density", "setting": "[1]", "value": "655 ± 2", "unit": "kg/m3"}, {"measurement": "refractive index", "setting": "[2]", "value": "1.375 ± 0.002"}]}
{"smiles": "FC(F)(F)C(F)(F)C(F)(F)C(F)(F)C(F)(F)C(F)(F)C(F)(F)C(F)(F)F", "note": "[octadecafluorooctane]", "values": [{"measurement": "vapor or sublimation pressure", "setting": "[1]; 283.15 K", "value": "1.51 ± 0.2", "unit": "kPa"}, {"measurement": "vapor or sublimation pressure", "setting": "[1]; 293.15 K", "value": "2.72 ± 0.2", "unit": "kPa"}, {"measurement": "mass density", "setting": "[1]", "value": "1755 ± 2", "unit": "kg/m3"}, {"measurement": "vapor or sublimation pressure", "setting": "[1]; 303.15 K", "value": "4.72 ± 0.2", "unit": "kPa"}, {"measurement": "vapor or sublimation pressure", "setting": "[1]; 313.15 K", "value": "7.86 ± 0.21", "unit": "kPa"}, {"measurement": "vapor or sublimation pressure", "setting": "[1]; 323.16 K", "value": "12.6 ± 0.21", "unit": "kPa"}, {"measurement": "refractive index", "setting": "[2]", "value": "1.268 ± 0.002"}]}
{"smiles": "FC(F)(F)C(F)(F)C(F)(F)C(F)(F)C(F)(F)C(F)(F)F", "note": "[perfluorohexane]", "values": [{"measurement": "vapor or sublimation pressure", "setting": "[1]; 283.14 K", "value": "14.6 ± 0.2", "unit": "kPa"}, {"measurement": "vapor or sublimation pressure", "setting": "[1]; 283.16 K", "value": "14.4 ± 0.2", "unit": "kPa"}, {"measurement": "vapor or sublimation pressure", "setting": "[1]; 293.14 K", "value": "23.5 ± 0.3", "unit": "kPa"}, {"measurement": "vapor or sublimation pressure", "setting": "[1]; 293.15 K", "value": "23.4 ± 0.3", "unit": "kPa"}, {"measurement": "mass density", "setting": "[1]", "value": "1701 ± 7 kg/m3 and 1670 ± 2 kg/m3"}, {"measurement": "vapor or sublimation pressure", "setting": "[1]; 303.12 K", "value": "36.2 ± 0.3", "unit": "kPa"}, {"measurement": "vapor or sublimation pressure", "setting": "[1]; 303.15 K", "value": "36.3 ± 0.3", "unit": "kPa"}, {"measurement": "vapor or sublimation pressure", "setting": "[1]; 313.13 K", "value": "54.1 ± 0.4", "unit": "kPa"}, {"measurement": "vapor or sublimation pressure", "setting": "[1]; 313.2 K", "value": "54.4 ± 0.4", "unit": "kPa"}, {"measurement": "vapor or sublimation pressure", "setting": "[1]; 323.13 K", "value": "78.8 ± 0.5", "unit": "kPa"}, {"measurement": "vapor or sublimation pressure", "setting": "[1]; 323.17 K", "value": "78.9 ± 0.4", "unit": "kPa"}, {"measurement": "refractive index", "setting": "[2]", "value": "1.251 ± 0.002 and 1.253 ± 0.002"}]}
